Results as given in patent US20180066241A1, “PRO-APOPTOTIC SET AND PP2A PEPTIDES” (Universite Pierre Et Marie Curie (Paris 6), priority 2015, published 2018).
Values belong to the substance of their own block, whether it stands above or below them.

Columns and labels:
H1299 cell line = test: Detection of apoptosis by Annexin-V-FITC staining, H1299; format: cell-based, Human; settings: H1299 cells, peptide 100 μM for 24 h, compared to control non treated cells
Experimental: (§1) H1975 and H1299 cell lines were cultured in the presence or in the absence (control) of the Mut3DPT-PP2Ac peptide at a concentration of 100 μM for 24 h. Apoptosis was detected by Annexin V-FITC staining and analyzed by flow cytometry. Mut3-DPT-PP2A is VKKKKIKAEIKI-ETVTLLVALKVRYRERIT (SEQ ID NO: 32).
(§2) Human non small cell lung carcinoma cell lines H1975 and H1299, as well as breast cancer cell line MDA-MB231 were cultured in DMEM (Gibco Life technologies) medium supplemented with 10% FCS.
(§3) Apopotic cells were detected using Annexin-V (-FITC from BD biosciences) as described by the manufacturer. Briefly, the cells were washed in lx binding buffer, centrifugated and then resuspended in 200 μL of 1× binding buffer containing Annexin V-FITC and propidium iodide (PI). After incubation at room temperature in the dark for 10 min, cells were analyzed with FACS Calibur cytofluometer (BD Biosciences).
(§4) The effect of peptides treatment was compared to untreated cells. The peptides were used at 100 μM for 24 h.

H1975 cell line = test: Detection of apoptosis by Annexin-V-FITC staining, H1975; format: cell-based, Human; settings: H1975 cells, peptide 100 μM for 24 h, compared to control non treated cells
Experimental: as §1, §2, §3, §4

Raji cell line = test: Detection of apoptosis by Annexin-V-FITC staining, Raji; format: cell-based, Human; settings: Raji cells, peptide 100 μM for 24 h, compared to control non treated cells
Experimental: as §1, with “Daudi, Raji” for “H1975”, “Jok 1” for “H1299”, “Mut3DPT-PP2A” for “Mut3DPT-PP2Ac”
(§5) Human B lymphoblast Daudi cell line, human lymphoblast-like Raji cell line and a Hairy cell leukemia-derived cell line Jok1 were cultured in DMEM (Gibco Life technologies) medium supplemented with 10% FCS.
(§6) Apopotic cells were detected using Annexin-V (-FITC from BD biosciences) as described above.
(§7) The effect of Mut3DPT-PP2Ac peptide treatment was compared to untreated cells. The peptides were used at 100 μM for 24 h.

Daudi cell line = test: Detection of apoptosis by Annexin-V-FITC staining, Daudi; format: cell-based, Human; settings: Daudi cells, peptide 100 μM for 24 h, compared to control non treated cells
Experimental: as §1, with “Daudi, Raji” for “H1975”, “Jok 1” for “H1299”, “Mut3DPT-PP2A” for “Mut3DPT-PP2Ac”
as §5, §6, §7

Jok1 cell line = test: Detection of apoptosis by Annexin-V-FITC staining, Jok1; format: cell-based, Human; settings: Jok1 cells, peptide 100 μM for 24 h, compared to control non treated cells
Experimental: as §1, with “Daudi, Raji” for “H1975”, “Jok 1” for “H1299”, “Mut3DPT-PP2A” for “Mut3DPT-PP2Ac”
as §5, §6, §7

MDA-MB231 cell line = test: Detection of apoptosis by Annexin-V-FITC staining, MDA-MB231; format: cell-based, Human; settings: MDA-MB231 cells, peptide 100 μM for 24 h, compared to control non treated cells
Experimental: MDA-MB231 cell line was cultured in the presence or in the absence (control) of the Mut3DPT-SET peptide at a concentration of 100 μM for 24 h. Apoptosis was detected by Annexin V-FITC staining and analyzed by flow cytometry. Mut3-DPT-SET is VKKKKIKAEIKI-[…] (SEQ ID NO: 33).
as §2, §3, §4

SET protein = SET protein (Homo sapiens, UniProt Q01105); test: Binding assay on cellulose-bound overlapping PP2Ac peptides incubated with SET protein; settings: four overlapping dodecapeptides, anti-SET antibody, ECL detection
SET protein, sequence (Q01105 1-277 isoform Q01105-2): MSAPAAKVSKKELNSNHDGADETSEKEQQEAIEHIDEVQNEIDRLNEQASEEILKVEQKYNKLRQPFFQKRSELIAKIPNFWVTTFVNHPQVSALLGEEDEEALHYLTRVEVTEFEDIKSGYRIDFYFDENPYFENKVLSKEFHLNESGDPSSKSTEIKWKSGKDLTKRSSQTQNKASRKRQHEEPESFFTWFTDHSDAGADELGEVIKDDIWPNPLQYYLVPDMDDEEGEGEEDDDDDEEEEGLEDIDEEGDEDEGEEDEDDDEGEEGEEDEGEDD
Experimental: (§8) FIG. 1A and 1B show determination of the binding site of PP2A to SET and vice versa. A) Overlapping dodecapeptides with two amino acid shift covering the whole PP2A protein were bound to a solid support. The membrane was incubated sequentially with SET protein, and anti-SET antibody, followed by a peroxidase-labeled secondary antibody. […] The sequence corresponding to the identified spots is shown. B) Overlapping dodecapeptides with two amino acid shift covering the whole human SET protein were bound to a solid support. The membrane was incubated sequentially with PP2A protein, and anti-PP2A antibody, followed by a peroxidase-labeled secondary antibody. […] The sequence corresponding to the identified spots is shown.
(§9) Overlapping peptides covering the whole human PP2Ac or SET sequence were prepared by automated spot synthesis (Abimed, Langerfeld, Germany) onto an amino-derived cellulose membrane, as described (Frank and Overwin, 1996; Gausepohl et al. 1992). The membranes were blocked, incubated with purified recombinant SET or PP2A protein, after several washing steps, incubated with anti-SET2 (Bethyl Laboratories) or anti-PP2Ac antibody (Santa Cruz), and followed by PO-conjugated secondary antibody. Protein interactions were visualized using ECL system (Pierce). […]

PP2Ac protein = PP2Ac protein (Homo sapiens, UniProt P67775); test: Binding assay on cellulose-bound overlapping SET peptides incubated with PP2A protein; settings: six overlapping dodecapeptides, anti-PP2Ac antibody, ECL detection
PP2Ac protein, sequence (P67775 whole entry): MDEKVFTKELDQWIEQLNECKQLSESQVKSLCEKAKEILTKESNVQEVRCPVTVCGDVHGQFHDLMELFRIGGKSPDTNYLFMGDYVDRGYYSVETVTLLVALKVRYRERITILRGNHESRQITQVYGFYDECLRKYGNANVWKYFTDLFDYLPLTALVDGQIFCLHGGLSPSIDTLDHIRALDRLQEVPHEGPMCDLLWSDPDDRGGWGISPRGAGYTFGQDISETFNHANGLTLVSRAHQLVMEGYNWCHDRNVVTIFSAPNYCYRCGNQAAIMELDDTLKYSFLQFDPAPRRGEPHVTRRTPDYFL
Experimental: as §8, §9

Substance: VKKKKIKAEIKI-ETVTLLVALKVRYRERIT (VKKKKIKAEIKIETVTLLVALKVRYRERIT) [Mut3DPT-PP2Ac]
apoptosis (Annexin V-FITC staining, flow cytometry) (H1299 cell line): has apoptotic effect
apoptosis (Annexin V-FITC staining, flow cytometry) (H1975 cell line): has apoptotic effect
apoptosis (Annexin V-FITC staining, flow cytometry) (Raji cell line): has an apoptotic effect
apoptosis (Annexin V-FITC staining, flow cytometry) (Daudi cell line): has an apoptotic effect
apoptosis (Annexin V-FITC staining, flow cytometry) (Jok1 cell line): has an apoptotic effect

Substance: VKKKKIKAEIKI-PSSKSTEIKWKSGKDLTKRSSQ (VKKKKIKAEIKIPSSKSTEIKWKSGKDLTKRSSQ) [Mut3DPT-SET]
apoptosis (Annexin V-FITC staining, flow cytometry) (MDA-MB231 cell line): slight apoptosis increase

binding of SET protein to cellulose-bound PP2Ac sequence (SET protein): bound by SET protein
Substance: ETVTLLVALKVRYRERIT (Synthetic peptide PP2Ac) [SEQ ID NO: 1]

binding of PP2Ac protein to cellulose-bound SET sequence (PP2Ac protein): bound by PP2Ac protein
Substance: PSSKSTEIKWKSGKDLTKRSSQ (Synthetic peptide SET) [SEQ ID NO: 2]
